One data set concerns normal SD rats. Briefly: Pharmacodynamic study in normal SD rats (blood glucose, single subcutaneous dose). It counts as in vivo. The following applies: for Blood Glucose Levels: Table 4.2, SD rats, 650 nmol/kg s.c. single dose, Mean ± SEM, n = 8.
The target of data set [1] is T1, human serum albumin (HSA) (Homo sapiens, UniProt P02768). The following applies: hsa on cm5 chip.
Protocol: (§1) According to the instructions for the Amine Coupling Kit, Type 2 (Cytiva), immobilize human serum albumin onto the surface of the CM5 sensor chip of the S Series. […] Human serum albumin (HSA) was diluted to 20 µg/mL with acetic acid solution of pH 4.5. The EDC/NHS mixture solution, HSA protein solution, and 1M ethanolamine-hydrochloric acid solution were added to the detection plate according to the program settings. b) The detection plate was placed into the Biacore 8K sample compartment. The EDC/NHS mixture solution, HSA protein solution, and 1M ethanolamine-hydrochloric acid solution were sequentially injected into the channels on the surface of the CM5 chip by the Biacore 8K according to the program. Through this process, the chip was activated, the ligand was coupled, and the chip was deactivated. Each channel consists of two circulation pools, with circulation pool 1 serving as the reference channel undergoing only surface activation and deactivation without injection of HSA protein solution.
(§2) The detection plate was placed into the sample compartment of the Biacore 8K, with the running buffer serving as the 0-concentration reference sample. c) Run the detection program, with samples sequentially injected into each channel of the chip according to the program.
(§3) Finally, the data was analyzed using BiaCore Insight Evaluation Software, employing a 1:1 binding model for analysis.
The target in data set [2] is T1, human serum albumin (HSA). Briefly: In vitro binding to HSA via SPR (Biacore 8K).
Protocol: as §1, §2, §3
The mark [3] stands for this setting: HSA on CM5 chip, 1:1 binding model.

The values below come from patent publication EP4722236A1, “INSULIN DERIVATIVE AND USE THEREOF” (The United Bio-Technology (Hengqin) Co., Ltd., priority 2023, dated 2024).

T1 sequence (P02768 25-609): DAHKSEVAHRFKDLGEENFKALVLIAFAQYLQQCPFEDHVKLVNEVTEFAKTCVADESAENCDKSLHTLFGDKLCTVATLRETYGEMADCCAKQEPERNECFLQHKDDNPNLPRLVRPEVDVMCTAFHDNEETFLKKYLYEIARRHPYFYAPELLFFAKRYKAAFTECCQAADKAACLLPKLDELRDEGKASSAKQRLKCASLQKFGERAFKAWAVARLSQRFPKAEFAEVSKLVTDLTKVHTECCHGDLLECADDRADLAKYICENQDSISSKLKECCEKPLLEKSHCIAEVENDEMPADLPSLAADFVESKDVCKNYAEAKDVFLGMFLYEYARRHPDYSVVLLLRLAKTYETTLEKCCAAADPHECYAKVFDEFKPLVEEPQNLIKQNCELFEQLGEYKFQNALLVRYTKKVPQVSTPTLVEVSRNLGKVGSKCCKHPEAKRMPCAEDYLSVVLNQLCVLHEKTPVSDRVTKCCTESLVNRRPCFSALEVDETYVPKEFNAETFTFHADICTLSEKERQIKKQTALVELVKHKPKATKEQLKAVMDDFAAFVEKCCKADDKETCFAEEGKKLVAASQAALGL
Protocol for normal SD rats: Normal male SD rats aged 8-9 weeks, body weight 280-320 g, were selected. Animals were housed in animal housing facilities with strictly controlled environmental conditions, where the temperature is maintained between 20°Cand 24°C and humidity was kept between 30 and 70%. During the experiment, animals were housed individually with free access to food and water.
After one week of adaptive feeding, the experiment commenced. Rats were assigned to Solvent group 1, Solvent group 2, and the treatment group based on body weight and blood glucose levels before administration, with eight rats per group. The administered doses were all 650 nmol/kg.
The above drugs were dissolved in the solvent to a concentration of 216.7 nmol/mL. The dosing volume is 3 mL/kg. For a single subcutaneous administration, with the administration time set as 0 hours, blood glucose levels were measured at 0 h before dosing, and at 4 h, 8 h, 24 h, 28 h, 48 h, 72 h, 96 h, and 120 h after dosing (without dietary restrictions).

Usually Kd stands for the free concentration of one partner at which half of the binding sites on the other are occupied at equilibrium, for simple one-to-one binding. In the case of “A14E, B16H, B25H, B29K (N^ε-[1-(19-Carboxyl-nonadecyloxy)-β-D-glucuronyl]-γGlu-[2-(2-{2-[2-(2-Aminoethoxy) ethoxy]acetylamino}ethoxy)ethoxy]acetyl), desB27, desB30 human insulin [Compound 4]”, the “Blood Glucose Levels” value is given as 7.3 ± 0.1 in the data set on normal SD rats (0 h (before dosing)); 3.6±0.3 with normal SD rats (4 h); 4.2±0.4 in the data set on normal SD rats (24 h); 4.4±0.5 in the data set with normal SD rats (48 h); 6.6±0.5 in the data set with normal SD rats (72 h); 7.8±0.1 in the data set on normal SD rats (96 h). Further, the “Blood Glucose Levels” value in the data set with normal SD rats (120 h) worked out at 7.5 ± 0.1. Moreover, the hypoglycemic effect entry in the data set with normal SD rats (comparison in words with Icodec, SD rats, s.c.) is listed as “superior to Icodec”. In data set [1], this substance registered a Kd of 275 µM. In data set [2] (setting [3]), this substance came in with a ka of 612 M⁻¹ s⁻¹. For the same substance, the kd in data set [2] (setting [3]) amounted to 0.169 s⁻¹. Further, in data set [2] (comparison in words with Icodec, SPR), the “binding affinity to HSA” value was “superior binding affinity to HSA compared to Icodec”.
